{
  "source": "paper PMC6743422",
  "about": "“Preclinical disposition of MGS0274 besylate, a prodrug of a potent group II metabotropic glutamate receptor agonist MGS0008 for the treatment of schizophrenia” (Pharmacology Research & Perspectives, 2019)",
  "key": {"[1]": {"set-up": "method as in PMID 17712352, PMID 11744608", "conditions": "dogs; cited from earlier work"}, "[2]": {"conditions": "humans, cited from earlier work; for oral bioavailability compared with parent compounds: transportable prodrugs"}, "[3]": {"set-up": "method as in PMID 25382826, PMID 17228865", "conditions": "rats; cited from earlier work"}, "[4]": {"tested_on": "positive and negative symptoms of schizophrenia", "set-up": "method as in PMID 17767166", "conditions": "phase 2 proof-of-concept trial, compared with placebo; cited from earlier work"}, "[5]": {"set-up": "method as in PMID 17767166", "conditions": "humans; cited from earlier work"}, "[6]": {"tested_on": "schizophrenia", "set-up": "method as in PMID 24772351", "conditions": "phase 3 clinical trial; cited from earlier work"}, "[7]": {"set-up": "method as in PMID 25382826", "conditions": "monkeys; cited from earlier work"}, "[8]": {"assay": "Plasma protein binding in monkey plasma", "type": "in vitro ADME, cynomolgus monkey", "conditions": "pH 7.4, 0.1, 1, and 10 μg/mL as MGS0274, equilibrium dialysis 5 h, 37°C", "procedure": "(§1) [^14C]MGS0008 was spiked with rat, monkey, or human plasma at final concentrations of 0.1, 1, and 10 μg/mL. The protein binding was evaluated according to a previously published method.11 MGS0274 besylate was spiked with monkey or human plasma at final concentrations of 0.1, 1, and 10 μg/mL as MGS0274, which was placed in a donor compartment of a 96‐well equilibrium dialysis plate (Dialysis Membrane Strips MWCO 12‐14K; HT Dialysis, Gales Ferry, CT). Sodium phosphate buffer (0.05 M, pH7.4) containing sodium chloride (0.07 M) was placed in a reservoir compartment. After incubation for 5 hours at a rate of 100 rpm at 37°C in humidified air‐5% CO2, aliquots of the plasma and dialysate were collected from each compartment, mixed with acetonitrile/methanol (9:1, v/v) containing [^2H4]MGS0274 besylate, and centrifuged. Aliquots of the supernatant were subjected to bioanalysis using liquid chromatography‐tandem mass spectrometry (LC‐MS/MS) (see Table S1‐A). The protein binding (%) was calculated based on the instruction manual of the 96‐well plate."}, "[9]": {"assay": "Hydrolytic activity against MGS0274 in rat serum and tissue S9 fractions", "type": "in vitro ADME", "conditions": "rat serum", "procedure": "(§2) Rat, monkey, or human serum that had been pre‐incubated for 5 minutes at 37°C was spiked with MGS0274 besylate at 10 μmol/L. After incubation for 5 to 60 minutes, the reaction was terminated by adding acetonitrile/methanol/formic acid (90:10:1, v/v/v) containing [^13C2 ^15N]MGS0008, and the resultant mixture was centrifuged. Tissue S9 fractions with final protein concentrations of 0.25 mg/mL were pre‐incubated for 5 minutes at 37°C, then spiked with MGS0274 besylate at 10 μmol/L. After incubation for 1 to 5 minutes, the reaction was terminated by adding acetonitrile/methanol/formic acid (90:10:1, v/v/v) containing [^13C2 ^15N]MGS0008, and the resultant mixture was centrifuged. Aliquots of the supernatant were subjected to bioanalysis using LC‐MS/MS (see Table S1‐C). The formation rate of MGS0008 from MGS0274 in the reaction mixture was calculated using the following equation: Formation ratenmol/min/mg protein=concentration of MGS0008,nmol/mL/incubation time,min/protein concentration,mg protein/mL"}, "[10]": {"assay": "Hydrolytic activity against MGS0274 in human serum and tissue S9 fractions", "type": "in vitro ADME", "procedure": "as §2"}, "[11]": {"tested_on": "rat cryopreserved hepatocytes", "assay": "In vitro metabolite profiling in rat cryopreserved hepatocytes", "type": "in vitro ADME", "conditions": "rat hepatocytes 0.5 million cells/mL, 37°C, 1 h, [14C]MGS0274 besylate 10 μmol/L", "procedure": "(§3) Rat, monkey, or human cryopreserved hepatocytes in Leivovitz L‐15 medium at 0.5 million cells/mL were incubated at 37°C for 1 hour with [^14C]MGS0274 besylate at 10 μmol/L. The reaction was terminated by adding 10% w/v trichloroacetic acid solution, and the resultant mixture was centrifuged. Aliquots of the supernatant were subjected to bioanalysis using high‐performance liquid chromatography equipped with radiochemical flow detection (RI‐HPLC) (see Table S1‐B). Aliquots of the supernatant from unlabeled incubation samples and authentic standards were also injected into a liquid chromatography‐mass spectrometry (LC‐MS) system under the same chromatographic conditions to compare their chromatographic retention times and mass spectral data (see Table S1‐B)."}, "[12]": {"tested_on": "monkey cryopreserved hepatocytes", "assay": "In vitro metabolite profiling in monkey cryopreserved hepatocytes", "type": "in vitro ADME", "conditions": "monkey hepatocytes 0.5 million cells/mL, 37°C, 1 h, [14C]MGS0274 besylate 10 μmol/L", "procedure": "as §3"}, "[13]": {"tested_on": "human cryopreserved hepatocytes", "assay": "In vitro metabolite profiling in human cryopreserved hepatocytes", "type": "in vitro ADME", "conditions": "human hepatocytes 0.5 million cells/mL, 37°C, 1 h, [14C]MGS0274 besylate 10 μmol/L", "procedure": "as §3"}, "[14]": {"assay": "Stability in buffers", "type": "physicochemical", "conditions": "pH 1.2 and 6.5 as surrogate for gastrointestinal fluids; data not shown"}, "[15]": {"assay": "Hydrolytic activity against MGS0274 in monkey serum and tissue S9 fractions", "type": "in vitro ADME", "conditions": "monkey serum", "procedure": "as §2"}, "[16]": {"assay": "Plasma protein binding in human plasma", "type": "in vitro ADME", "conditions": "pH 7.4, 0.1, 1, and 10 μg/mL as MGS0274, equilibrium dialysis 5 h, 37°C", "procedure": "as §1"}, "[17]": {"set-up": "method as in earlier work", "conditions": "cited from earlier work"}, "[18]": {"tested_on": "CYP1A2 mRNA", "assay": "CYP induction in primary cultured cryopreserved human hepatocytes, CYP1A2 mRNA", "type": "in vitro ADME", "conditions": "positive control omeprazole 50 μM", "procedure": "(§4) The primary cultured cryopreserved human hepatocytes were plated in a collagen‐coated 96‐well plate (Becton Dickinson, Franklin Lakes, NJ) with Williams’ Medium E (Invitrogen, Carlsbad, CA) containing Geltrex^TM (Invitrogen) and Maintenance Supplements (Invitrogen) and maintained in humidified air‐5% CO2 at 37°C for 3 days. Then, the cells were cultured for three consecutive 24‐hour treatments with MGS0008 (3‐30 µmol/L), with MGS0274 besylate (3‐30 µmol/L), or with positive controls (omeprazole for CYP1A2 at 50 µmol/L, phenobarbital for CYP2B6 at 1000 µmol/L, or rifampicin for CYP3A4 at 10 µmol/L). The mRNA expression levels of CYP1A2, 2B6, and 3A4 were measured using the real‐time polymerase chain reaction (RT‐PCR) method (7500 Fast RT‐PCR system; Applied Biosystems, Foster City, CA) with TaqMan® Fast Universal PCR Master Mix (probe ID: Hs00167927_m1 for CYP1A2, Hs04183483_g1 for CYP2B6, and Hs00604506_ml for CYP3A4; Applied Biosystems). The fold change in the mRNA expression was calculated using the 2^‐ΔΔCT method.22"}, "[19]": {"tested_on": "CYP2B6 mRNA", "assay": "CYP induction in primary cultured cryopreserved human hepatocytes, CYP2B6 mRNA", "conditions": "positive control phenobarbital 1000 μM", "procedure": "as §4"}},
  "note": "Read-outs that look alike come from different tables or passages of the source.",
  "data": [
    {"smiles": "N[C@@]1(C(=O)O)CC[C@H]2[C@H](C(=O)O)[C@H]21", "note": "[LY354740, (+)‐2‐aminobicyclo[3.1.0]hexane‐2,6‐dicarboxylic acid]", "values": [
      {"measurement": "oral bioavailability", "setting": "[1]", "result": "high"},
      {"measurement": "oral bioavailability", "setting": "[2]", "result": "low"}
    ]},
    {"smiles": "N[C@@]1(C(=O)O)CS(=O)(=O)[C@H]2[C@H](C(=O)O)[C@H]21", "note": "[LY404039]", "values": [
      {"measurement": "oral bioavailability", "setting": "[2]", "result": "low"},
      {"measurement": "oral bioavailability", "setting": "[3]", "result": "high"}
    ]},
    {"smiles": "C[C@H](N)C(=O)N[C@@]1(C(=O)O)CC[C@H]2[C@H](C(=O)O)[C@H]21", "note": "[LY544344]", "values": [
      {"measurement": "oral bioavailability compared with parent compounds", "setting": "[2]", "result": "improved oral bioavailability"}
    ]},
    {"smiles": "CSCC[C@H](N)C(=O)N[C@@]1(C(=O)O)CS(=O)(=O)[C@H]2[C@H](C(=O)O)[C@H]21", "note": "[LY2140023]", "values": [
      {"measurement": "effect on positive and negative symptoms of schizophrenia", "setting": "[4]", "result": "significantly improved"},
      {"measurement": "systemic exposure to the prodrug, relative to its parent compound", "setting": "[5]", "result": "roughly 30%"},
      {"measurement": "efficacy in schizophrenia", "setting": "[6]", "result": "failed to demonstrate efficacy"},
      {"measurement": "systemic exposure to the prodrug, share of circulating radioactivity", "setting": "[7]", "result": "~15", "unit": "%"},
      {"measurement": "oral bioavailability compared with parent compounds", "setting": "[2]", "result": "improved oral bioavailability"}
    ]},
    {"smiles": "CC1CCC(C(C)C)C(OC(=O)OC(C)OC(=O)C2C3CC(F)C(N)(C(=O)O)C32)C1", "note": "(stereo not drawn) [MGS0274]", "values": [
      {"measurement": "fraction unbound at 5 h", "setting": "[8]", "result": "0.065 to 0.076"},
      {"measurement": "stability in serum", "setting": "[9]", "result": "unstable"},
      {"measurement": "Formation rate of MGS0008", "setting": "[10]; human kidney S9 0.25 mg/mL, MGS0274 besylate 10 μmol/L, 37°C, MGS0008 not detected in the reaction mixture", "result": "no apparent hydrolytic activity"},
      {"measurement": "stability in serum", "setting": "[10]; human serum", "result": "stable"},
      {"measurement": "metabolite profile of MGS0274", "setting": "[11]", "result": "nearly and completely hydrolyzed to MGS0008"},
      {"measurement": "metabolite profile of MGS0274", "setting": "[12]", "result": "nearly and completely hydrolyzed to MGS0008"},
      {"measurement": "metabolite profile of MGS0274", "setting": "[13]", "result": "nearly and completely hydrolyzed to MGS0008"},
      {"measurement": "stability in buffers", "setting": "[14]", "result": "confirmed"},
      {"measurement": "stability in serum", "setting": "[15]", "result": "stable"},
      {"measurement": "fraction unbound at 5 h", "setting": "[16]", "result": "0.039 to 0.043"}
    ]},
    {"smiles": "CC(C)[C@@H]1CC[C@@H](C)C[C@H]1O", "note": "[l‐menthol]", "values": [
      {"measurement": "acceptable daily intake", "setting": "[17]", "result": 4, "unit": "mg/kg"}
    ]},
    {"smiles": "COc1ccc2[nH]c([S+]([O-])Cc3ncc(C)c(OC)c3C)nc2c1", "note": "(stereo not drawn) [omeprazole, reference compound]", "values": [
      {"measurement": "Fold change of mRNA expression level CYP1A2", "setting": "[18]; hepatocyte lot Hu1487", "result": 35.9, "unit": "fold"},
      {"measurement": "Fold change of mRNA expression level CYP1A2", "setting": "[18]; hepatocyte lot Hu8114", "result": 20.7, "unit": "fold"},
      {"measurement": "Fold change of mRNA expression level CYP1A2", "setting": "[18]; hepatocyte lot Hu8123", "result": 59.2, "unit": "fold"}
    ]},
    {"smiles": "CCC1(c2ccccc2)C(=O)NC(=O)NC1=O", "note": "[phenobarbital, reference compound]", "values": [
      {"measurement": "Fold change of mRNA expression level CYP2B6", "setting": "[19]; hepatocyte lot Hu1487", "result": 16.4, "unit": "fold"},
      {"measurement": "Fold change of mRNA expression level CYP2B6", "setting": "[19]; hepatocyte lot Hu8114", "result": 35.1, "unit": "fold"},
      {"measurement": "Fold change of mRNA expression level CYP2B6", "setting": "[19]; hepatocyte lot Hu8123", "result": 45.7, "unit": "fold"}
    ]}
  ]
}
